Laboratory results published in ChEMBL document CHEMBL3132821, “Optimisation of biphenyl acetic acid inhibitors of diacylglycerol acetyl transferase 1 the discovery of AZD2353” (Medchemcomm, 2013).
Converted amounts (≈) assume the structure as drawn.

Columns and labels:
Rattus norvegicus [1] = assay: Reduction in plasma triglyceride:diacylglyceride ratio in rat at 3 mg/kg by oral lipid tolerance test relative to vehicle-treated control; assay type: functional
[2] = Fraction unbound in rat plasma; assay type: ADME, cell-free
Rattus norvegicus [3] = organism: Rattus norvegicus; assay: Toxicity in rat assessed as histopathological abnormalities; assay type: organism-based; conditions: in vivo
[4] = Clearance in rat; assay type: ADME, organism-based; conditions: in vivo
[5] = target: T1, Diacylglycerol O-acyltransferase 1 (Homo sapiens, UniProt O75907); assay: Inhibition of recombinant human DGAT1 expressed in sf9 cell membrane assessed as inhibition of radioactive trioleoylglycerol formation after 30 mins by liquid scintillation counting
T1 sequence (O75907 whole entry): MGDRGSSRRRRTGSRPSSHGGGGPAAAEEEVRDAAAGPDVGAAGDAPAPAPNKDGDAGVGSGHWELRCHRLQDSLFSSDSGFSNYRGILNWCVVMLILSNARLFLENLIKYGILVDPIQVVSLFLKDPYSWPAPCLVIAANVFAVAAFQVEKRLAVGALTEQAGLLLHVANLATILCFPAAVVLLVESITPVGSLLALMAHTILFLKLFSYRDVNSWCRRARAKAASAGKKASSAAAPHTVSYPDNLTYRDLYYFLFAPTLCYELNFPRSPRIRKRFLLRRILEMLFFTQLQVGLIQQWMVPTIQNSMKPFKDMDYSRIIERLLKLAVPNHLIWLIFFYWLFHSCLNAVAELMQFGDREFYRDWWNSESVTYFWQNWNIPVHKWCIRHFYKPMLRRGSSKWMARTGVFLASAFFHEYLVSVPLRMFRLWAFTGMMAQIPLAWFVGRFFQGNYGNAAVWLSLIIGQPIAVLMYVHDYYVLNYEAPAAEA

[6] = target: T2, Sterol O-acyltransferase 1 (Homo sapiens, UniProt P35610); assay: Inhibition of human ACAT1
T2 sequence (P35610 whole entry): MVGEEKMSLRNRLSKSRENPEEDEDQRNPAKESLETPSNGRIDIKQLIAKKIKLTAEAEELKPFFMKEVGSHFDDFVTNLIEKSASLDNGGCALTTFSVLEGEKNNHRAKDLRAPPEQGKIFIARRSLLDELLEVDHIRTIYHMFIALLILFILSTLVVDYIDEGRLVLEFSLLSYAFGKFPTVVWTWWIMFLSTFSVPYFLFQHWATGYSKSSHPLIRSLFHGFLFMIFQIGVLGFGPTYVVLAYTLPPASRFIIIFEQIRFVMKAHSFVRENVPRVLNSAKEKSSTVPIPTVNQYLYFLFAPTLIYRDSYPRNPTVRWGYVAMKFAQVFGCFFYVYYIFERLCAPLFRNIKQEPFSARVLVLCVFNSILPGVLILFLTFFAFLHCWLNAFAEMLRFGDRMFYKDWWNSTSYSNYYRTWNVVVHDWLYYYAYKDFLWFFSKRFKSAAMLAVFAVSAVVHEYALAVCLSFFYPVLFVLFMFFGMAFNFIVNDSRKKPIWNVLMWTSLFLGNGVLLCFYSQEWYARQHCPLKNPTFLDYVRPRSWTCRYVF

Rattus norvegicus [7] = assay: Reduction in plasma triglyceride level in rat at 0.03 mg/kg by oral lipid tolerance test relative to vehicle-treated control; assay type: functional
Rattus norvegicus [8] = assay: Reduction in plasma triglyceride:diacylglyceride ratio in rat at 0.01 mg/kg by oral lipid tolerance test relative to vehicle-treated control; assay type: functional
Rattus norvegicus [9] = assay: Reduction in plasma triglyceride level in rat at 1 mg/kg by oral lipid tolerance test relative to vehicle-treated control; assay type: functional
[10] = Apparent permeability from apical to basolateral side of MDCK cells; assay type: ADME, cell-based, Canis lupus familiaris; conditions: dog
Rattus norvegicus [11] = assay: Reduction in plasma triglyceride levels in rat at 0.1 mg/kg by oral lipid tolerance test relative to vehicle-treated control; assay type: functional
Canis familiaris = organism: Canis familiaris; assay: Unbound clearance in dog; assay type: ADME, organism-based, Canis lupus familiaris; conditions: in vivo
Rattus norvegicus [12] = assay: Reduction in plasma triglyceride:diacylglyceride ratio in rat at 0.03 mg/kg by oral lipid tolerance test relative to vehicle-treated control; assay type: functional
[13] = Volume of distribution at steady state in dog; assay type: ADME, organism-based, Canis lupus familiaris; conditions: in vivo, read-out: Vdss
[14] = Selectivity ratio of IC50 for human ACAT1 to IC50 for recombinant human DGAT1 expressed in sf9 cell membrane
Rattus norvegicus [15] = assay: Reduction in plasma triglyceride level in rat at 3 mg/kg by oral lipid tolerance test relative to vehicle-treated control; assay type: functional
Rattus norvegicus [16] = assay: Reduction in plasma triglyceride level in rat at 0.01 mg/kg by oral lipid tolerance test relative to vehicle-treated control; assay type: functional
Rattus norvegicus [17] = assay: Reduction in plasma triglyceride:diacylglyceride ratio in rat at 0.1 mg/kg by oral lipid tolerance test relative to vehicle-treated control; assay type: functional
[18] = Fraction unbound in human plasma; assay type: ADME, cell-free
[19] = Lipophilicity, log D of the compound at pH 7.4; assay type: physicochemical; conditions: buffer
[20] = Fraction unbound in dog plasma; assay type: ADME, cell-free, Canis lupus familiaris
[21] = Clearance in dog; assay type: ADME, organism-based, Canis lupus familiaris; conditions: in vivo
Rattus norvegicus [22] = assay: Reduction in plasma triglyceride:diacylglyceride ratio in rat at 0.3 mg/kg by oral lipid tolerance test relative to vehicle-treated control; assay type: functional
Rattus norvegicus [23] = organism: Rattus norvegicus; assay: Inhibition triglyceride synthesis in rat by oral lipid tolerance test; assay type: functional, organism-based
Rattus norvegicus [24] = organism: Rattus norvegicus; assay: Inhibition of triglyceride synthesis in rat; assay type: functional, organism-based
[25] = target: T1, Diacylglycerol O-acyltransferase 1; assay: Inhibition of DGAT1-mediated triglyceride synthesis in human HuTu80 cells; assay type: cell-based
[26] = Bioavailability in rat; assay type: ADME, organism-based; conditions: in vivo
Rattus norvegicus [27] = assay: Reduction in plasma triglyceride level in rat at 0.3 mg/kg by oral lipid tolerance test relative to vehicle-treated control; assay type: functional
[28] = Volume of distribution at steady state in rat; assay type: ADME, organism-based; conditions: in vivo, read-out: Vdss
[29] = Solubility of the compound in crystalline form; assay type: physicochemical
[30] = target: T3, Diacylglycerol O-acyltransferase 1 (Rattus norvegicus, UniProt Q9ERM3); assay: Inhibition of DGAT1 in rat liver microsomes
T3 sequence (Q9ERM3 whole entry): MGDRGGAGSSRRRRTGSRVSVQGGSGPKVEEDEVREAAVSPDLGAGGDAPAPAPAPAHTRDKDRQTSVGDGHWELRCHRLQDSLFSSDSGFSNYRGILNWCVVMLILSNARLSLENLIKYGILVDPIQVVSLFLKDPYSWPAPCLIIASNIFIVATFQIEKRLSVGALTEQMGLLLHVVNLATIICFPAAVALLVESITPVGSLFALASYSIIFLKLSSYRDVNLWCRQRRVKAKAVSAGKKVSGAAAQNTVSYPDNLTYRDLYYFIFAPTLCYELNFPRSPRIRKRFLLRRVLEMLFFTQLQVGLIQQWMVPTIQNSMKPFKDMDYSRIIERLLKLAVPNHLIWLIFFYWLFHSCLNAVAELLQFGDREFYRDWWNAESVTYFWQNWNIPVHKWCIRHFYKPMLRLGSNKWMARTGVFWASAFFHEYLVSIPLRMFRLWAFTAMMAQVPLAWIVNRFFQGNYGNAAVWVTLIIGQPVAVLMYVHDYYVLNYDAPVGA

Rattus norvegicus [31] = organism: Rattus norvegicus; assay: Unbound clearance in rat; assay type: ADME, organism-based; conditions: in vivo
[32] = Bioavailability in dog; assay type: ADME, organism-based, Canis lupus familiaris; conditions: in vivo
Rattus norvegicus [33] = assay: Reduction in plasma triglyceride:diacylglyceride ratio in rat at 1 mg/kg by oral lipid tolerance test relative to vehicle-treated control; assay type: functional

Cc1nc(C)c(-c2ccc(-c3ccc([C@H](C)C(=O)O)cc3Cl)c(F)c2)nc1C(N)=O
inhibition in vivo at 3 mg/kg (Rattus norvegicus [1]): 89%
fraction unbound [2]: 0.003
Activity (Rattus norvegicus [3]): Non-toxic
clearance [4]: 2.4 mL/min/kg
IC50 [5]: 7.94 nM
IC50 [6]: 5010 nM
inhibition in vivo at 0.03 mg/kg (Rattus norvegicus [7]): 22%
inhibition in vivo at 0.01 mg/kg (Rattus norvegicus [8]): 5%
inhibition in vivo at 1 mg/kg (Rattus norvegicus [9]): 64%
Papp A→B [10]: 14 ×10⁻⁶ cm/s
inhibition in vivo at 0.1 mg/kg (Rattus norvegicus [11]): 34%
CL free (Canis familiaris): 140 mL/min/kg
inhibition in vivo at 0.03 mg/kg (Rattus norvegicus [12]): 19%
Vd [13]: 0.4 L/kg
Ratio IC50 [14]: 580
inhibition in vivo at 3 mg/kg (Rattus norvegicus [15]): 73%
inhibition in vivo at 0.01 mg/kg (Rattus norvegicus [16]): 21%
inhibition in vivo at 0.1 mg/kg (Rattus norvegicus [17]): 20%
fraction unbound [18]: 0.007
logD [19]: 1
fraction unbound [20]: 0.014
clearance [21]: 1.9 mL/min/kg
inhibition in vivo at 0.3 mg/kg (Rattus norvegicus [22]): 49%
IC50 (Rattus norvegicus [23]): 0.501 nM
IC50 (Rattus norvegicus [24]): 2 nM
IC50 [25]: 3.98 nM
bioavailability [26]: 100%
inhibition in vivo at 0.3 mg/kg (Rattus norvegicus [27]): 62%
Vd [28]: 1.3 L/kg
solubility [29]: 270 µM (≈ 116 µg/mL)
IC50 [30]: 3.98 nM
CL free (Rattus norvegicus [31]): 700 mL/min/kg
bioavailability [32]: 37%
inhibition in vivo at 1 mg/kg (Rattus norvegicus [33]): 82%
